# PubChem BioAssay AID1845219 (Molecular Pharmacology Branch, DTP, NCI, 2023)
# System: SYO-1 tumor spheroids, viability % test/control
# Test: Anticancer human tumor SYO-1 cell line growth inhibition;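 also: spheroids exposed to agents for 7 days before viability read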;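 as to viability, T/C: 100% = DMSO vehicle control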
# Details: spheroids with HUVEC and MSC; for IC50: curve of first compound; for viability, T/C: stronger effect = lower value
# Method in brief: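 Single agents and combinations were tested on spheroids built from tumor cells plus HUVEC and hMSC, at half-log dilutions starting at or near clinical Cmax, else 10 microM; final DMSO 0.25% (v/v).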
smiles,measurement,setting,value
Cc1sc2c(c1C)C(c1ccc(Cl)cc1)=NC(CC(=O)Nc1ccc(O)cc1)c1nnc(C)n1-2 (stereo not given) + Cn1nnc2c(C(N)=O)ncn2c1=O,IC50,second compound 1 µM,64.2 nM
same,IC50,second compound 3.16 µM,63.2 nM
same,IC50,second compound 10 µM,59.2 nM
same,IC50,second compound 31.6 µM,53.5 nM
same,IC50,second compound 100 µM,26.1 nM
same,"viability, T/C","second compound 1 µM, first compound 0.00949 µM",93.6%
same,"viability, T/C","second compound 1 µM, first compound 0.03 µM",89.6%
same,"viability, T/C","second compound 1 µM, first compound 0.0949 µM",29.7%
same,"viability, T/C","second compound 1 µM, first compound 0.3 µM",1.14%
same,"viability, T/C","second compound 1 µM, first compound 0.949 µM",0.56%
same,"viability, T/C","second compound 1 µM, first compound 3 µM",0.57%
same,"viability, T/C","second compound 3.16 µM, first compound 0.00949 µM",93.6%
same,"viability, T/C","second compound 3.16 µM, first compound 0.03 µM",89.3%
same,"viability, T/C","second compound 3.16 µM, first compound 0.0949 µM",28.6%
same,"viability, T/C","second compound 3.16 µM, first compound 0.3 µM",1.02%
same,"viability, T/C","second compound 3.16 µM, first compound 0.949 µM",0.71%
same,"viability, T/C","second compound 3.16 µM, first compound 3 µM",0.61%
same,"viability, T/C","second compound 10 µM, first compound 0.00949 µM",94.3%
same,"viability, T/C","second compound 10 µM, first compound 0.03 µM",91.3%
same,"viability, T/C","second compound 10 µM, first compound 0.0949 µM",21.4%
same,"viability, T/C","second compound 10 µM, first compound 0.3 µM",1.06%
same,"viability, T/C","second compound 10 µM, first compound 0.949 µM",0.76%
same,"viability, T/C","second compound 10 µM, first compound 3 µM",0.54%
same,"viability, T/C","second compound 31.6 µM, first compound 0.00949 µM",101%
same,"viability, T/C","second compound 31.6 µM, first compound 0.03 µM",84.8%
same,"viability, T/C","second compound 31.6 µM, first compound 0.0949 µM",15.5%
same,"viability, T/C","second compound 31.6 µM, first compound 0.3 µM",1.03%
same,"viability, T/C","second compound 31.6 µM, first compound 0.949 µM",0.85%
same,"viability, T/C","second compound 31.6 µM, first compound 3 µM",0.62%
same,"viability, T/C","second compound 100 µM, first compound 0.00949 µM",91.8%
same,"viability, T/C","second compound 100 µM, first compound 0.03 µM",44.3%
same,"viability, T/C","second compound 100 µM, first compound 0.0949 µM",1.77%
same,"viability, T/C","second compound 100 µM, first compound 0.3 µM",1.29%
same,"viability, T/C","second compound 100 µM, first compound 0.949 µM",0.88%
same,"viability, T/C","second compound 100 µM, first compound 3 µM",0.73%
